A short description of data set [1]: Foam height of terpene ether at t=0. In kind it is physicochemical. The text has this: (§1) Die Eigenschaften von mehreren erfindungsgemäßen Terpenethern werden in Tabelle 19 zusammengefasst und mit denen anderen Terpenethern verglichen. Tabelle 19
Data set [2] can be described thus: Dynamic surface tension. In kind it is physicochemical.
Source text: as §1

We go through 7 molecules from EP2465840A1, “Terpene ether” (CABB GmbH, priority 2010, dated 2012).

As to `CC(=O)OCC(COC1CC2CCC1(C)C2(C)C)OC(C)=O` (stereo not drawn) [NP7, Diacetin-isobornytether], the “Schaumhöhe t=0” value in data set [1] came out at 0 mm. Besides, in data set [2], the “Dynamische Oberflächenspannung Blasenfrequenz 1 Hz” value was found to be 52 mN/m and the “Dynamische Oberflächenspannung Blasenfrequenz 3 Hz” value is listed as 57 mN/m.
The corresponding values for `CC1(C)C2CCC1(C)C(OCCOCCOCCO)C2` (stereo not drawn) [NP 6, Triethylenglykol-isobornylether] are 0 mm, 43 mN/m and 45 mN/m.
Take `CC1(C)C2CCC1(C)C(OCCOC1CC3CCC1(C)C3(C)C)C2` (stereo not drawn) [NP 23, Ethylenglykol-diisobornylether]: the “Schaumhöhe t=0” value in data set [1] amounted to 6 mm. In data set [2], the “Dynamische Oberflächenspannung Blasenfrequenz 1 Hz” value stood at 66 mN/m and the “Dynamische Oberflächenspannung Blasenfrequenz 3 Hz” value was determined as 68 mN/m.
For “Dipropylenglykol-düsobornylether [NP 22]” the same measures were 0 mm, 64 mN/m and 68 mN/m.
For the molecule Milchsäure-isobornylether [NP 14], the “Schaumhöhe t=0” value in data set [1] was determined as 0 mm. For the same molecule, in data set [2], the “Dynamische Oberflächenspannung Blasenfrequenz 1 Hz” value stood at 45 mN/m and the “Dynamische Oberflächenspannung Blasenfrequenz 3 Hz” value is on record as 47 mN/m.
For “S-(-)-Milchsäuremethylester-isobornylether [NP2]” the same measures were 0 mm, 65 mN/m and 67 mN/m.
The corresponding values for Tripropylenglykol-isobornylether [NP 3] are 0 mm, 45 mN/m and 63 mN/m.
